Measured values taken from patent US11179349B2, “Use of tumor gene methylation regulator and anti-tumor drugs” (priority 2016, dated 2021).
Values joined by “and” are separate entries in the source; they are usually repeats but may differ in a detail not shown here. Identical values can stand only once.

Experiments:
[1] = test system: MCF-7 (human breast cancer); test: CellTiter-Glo luminescent cell viability assay, human breast cancer cells; format: cell-based; details: MCF7, MCF-7, 48 hours, drug used alone
Protocol: The above tumor cell line derived from ATCC was cultured in an incubator with 5% CO2 at 37° C.
(4). The culture plate was cultured overnight in an incubator with 5% CO2 and 100% relative humidity at 37° C.

[2] = test system: hepatoma cell line Huh-7, and breast cancer cell lines T47D and MCF-7; test: Previous work: in vitro cultured human solid tumor cells treated with 3′-deoxyadenosine alone; format: cell-based; details: Huh-7, T47D and MCF-7, inventors' previous work
Text: However, its effect was still not satisfactory.

Huh-7 (human hepatoma) = test: CellTiter-Glo luminescent cell viability assay, human hepatoma cells; details: Huh-7, 48 h
Protocol: The above tumor cell line derived from ATCC was cultured in an incubator with 5% CO2 at 37° C. The cell line was subcultured twice per week by trypsinization. Cells in the logarithmic growth phase were used for plating.
The concentration of the cells was adjusted to 2×10^4 cells/ml (about 2.0×10^3 cells/well).
(3) 100 μl of a cell suspension was added to each well in the culture plate, and a cell-free culture solution was added to the blank control wells.
Dosing: 5 μl of the compound working solution (20×) was taken and added to the cell culture plate. 5 μl of a mixed solution of DMSO-cell culture solution was added to the solvent control and the blank control.
The 96-well culture plate was put back to the incubator for culture for 48 hours.
The following steps were performed according to the instructions of the Promega CellTiter-Glo Luminescent Cell Viability Assay Kit (Promega-G7571).
(6) 80 μl of the CellTiter-Glo working solution was added to each well. The cell plate was covered with aluminum foil to protect it from light.
The culture plate was shaken on an orbital shaker for 2 minutes to induce cell lysis.
The culture plate was allowed to stand at room temperature for 10 minutes to stabilize a luminescent signal.

[3] = test system: human gastric cancer (SGC 7901); test: Experiment 9: suppression of gastric cancer (SGC 7901) xenografts with 5-fluorouracil and 3′-deoxyadenosine; format: in vivo, BALB/c nude mouse; details: 5-fluorouracil 6 mg/kg, intravenous, 28th day
Text: (§3) The inoculated well-grown subcutaneously xenografted tumors were removed and cut into tumor tissue blocks with a size of about 2×2×2 mm for later use. After being anesthetized, the mice were placed in the left lateral decubitus position, the tumor tissue blocks were put into the armpits of the mice, the skin was sutured and disinfected, and then the mice were put back into the cages and fed normally. The mice were grouped after the tumors grew to have a diameter of about 7 to 8 mm. […] The general symptoms of the animals were observed before and after the administration. The longer diameter (a) and shorter diameter (b) of each of the solid tumors were measured twice per week after the first administration, the tumor volume was calculated according to the formula: volume (V)=½×a×b^2, and the animals were weighed. The drug was discontinued after administration for 14 days. On the 7th day after stopping the administration, the animals were weighed and then were sacrificed by cervical dislocation, and the solid tumors were removed and weighed. The data obtained were analyzed by SPSS statistical analysis software.
Each group was administered with a drug once daily (volume 0.2 mL, intravenously) and measured twice per week.

[4] = test system: human breast cancer xenografts (MCF-7); test: Experiment 1: suppression of breast cancer (MCF-7) xenografts with capecitabine and 3′-deoxyadenosine; format: in vivo, BALB/c nude mouse; details: capecitabine 400 mg/Kg/day
Protocol: (§1) Human leukemia cells HL60, human gastric cancer cell line SGC-7901, human breast cancer cells MCF-7, human colon cancer cells HT-29, human lung cancer cells A-549, and human hepatoma cells Huh-7 were routinely cultured in vitro and digested and centrifuged to prepare cell suspensions at a concentration of about 1×10^7 cells/mL, respectively, which were inoculated subcutaneously in the right armpits of the mice at 0.2 mL per mouse.
(§2) The inoculated well-grown subcutaneously xenografted tumors were removed and cut into tumor tissue blocks with a size of about 2×2×2 mm for later use. After being anesthetized, the mice were placed in the left lateral decubitus position, the tumor tissue blocks were put into the armpits of the mice, the skin was sutured and disinfected, and then the mice were put back into the cages and fed normally. The mice were grouped after the tumors grew to have a diameter of about 7 to 8 mm. […] The longer diameter (a) and shorter diameter (b) of each of the solid tumors were measured twice per week after the first administration, the tumor volume was calculated according to the formula: volume (V)=½×a×b^2, and the animals were weighed. […] The data obtained were analyzed by SPSS statistical analysis software. […]

[5] = test system: human gastric cancer xenografts (SGC-7901); test: Experiment 6: suppression of gastric cancer (SGC-7901) xenografts with capecitabine and 3′-deoxyadenosine; format: in vivo, BALB/c nude mouse; details: capecitabine 400 mg/Kg, 27th day
Text: as §3

[6] = test system: human colon cancer xenografts (HT-29); test: Experiment 7: suppression of colon cancer (HT-29) xenografts with capecitabine and 3′-deoxyadenosine; format: in vivo, BALB/c nude mouse; details: capecitabine 400 mg/Kg, 31st day
Text: as §3

[7] = test system: human lung cancer xenografts (A-549); test: Experiment 4: suppression of lung cancer (A-549) xenografts with cisplatin and 3′-deoxyadenosine; format: in vivo, BALB/c nude mouse
Protocol: as §1
The inoculated well-grown subcutaneously xenografted tumors were removed and cut into tumor tissue blocks with a size of about 2×2×2 mm for later use. After being anesthetized, the mice were placed in the left lateral decubitus position, the tumor tissue blocks were put into the armpits of the mice, the skin was sutured and disinfected, and then the mice were put back into the cages and fed normally. The mice were grouped after the tumors grew to have a diameter of about 7 to 8 mm. Generally, after being grouped, the mice were administered by gavage with a drug or with a blank solution (solvent: 0.9% (g/mL) sodium chloride injection) for continuous 14 days, once per day, administrated at a volume of 20 mL/kg. Special situations will be described separately in corresponding examples. The general symptoms of the animals were observed before and after the administration. The longer diameter (a) and shorter diameter (b) of each of the solid tumors were measured twice per week after the first administration, the tumor volume was calculated according to the formula: volume (V)=½×a×b^2, and the animals were weighed. The drug was discontinued after administration for 14 days. On the 7th day after stopping the administration, the animals were weighed and then were sacrificed by cervical dislocation, and the solid tumors were removed and weighed. The data obtained were analyzed by SPSS statistical analysis software.
Formula for Evaluation of the Therapeutic Efficacy: Tumor-growth inhibition rate=(average tumor weight in solvent control group−average tumor weight in administered control group)/average tumor weight in solvent control group×100%.
On the 14th day after inoculation of the mice with lung cancer A-549 cells, xenografted tumor models were successful, and then treated with drugs. Refer to FIG. 4 for experimental results.

[8] = test system: human leukemia xenografts (HL60); test: Experiment 2: suppression of leukemia (HL60) xenografts with doxorubicin and 3′-deoxyadenosine; format: in vivo, BALB/c nude mouse
Protocol: as §1, §2

[9] = test system: human hepatoma xenografts (Huh-7); test: Experiment 5: suppression of hepatoma (Huh-7) xenografts with doxorubicin and 3′-deoxyadenosine; format: in vivo, BALB/c nude mouse; details: doxorubicin 2.5 mg/kg, 37th day
Text: as §3
On the 23rd day after inoculation of the mice with human hepatoma Huh-7 cells, xenografted tumor models were successful, and then treated with drugs.

Nc1ncnc2c1ncn2[C@@H]1O[C@H](CO)C[C@H]1O [3′-deoxyadenosine]
IC50 [1]: 0.85 µM
inhibition of proliferation [2]: could inhibit the proliferation
IC50 (Huh-7 (human hepatoma)): 1.35 µM

O=c1[nH]cc(F)c(=O)[nH]1 [5-fluorouracil]
inhibition rate [3]: 67.5%

CCCCCOC(=O)Nc1nc(=O)n([C@@H]2O[C@H](C)[C@@H](O)[C@H]2O)cc1F [capecitabine]
experimental animals died ([4]; 11th day of the experiment, 7 mice per group): 5
tumor inhibition rate ([4]; 11th day, vs normal saline group): 86.1%
inhibition rate [5]: 57.8%
inhibition rate [6]: 80.1%

N.N.[Cl][Pt][Cl] [cisplatin]
mice died ([7]; cisplatin 5 mg/kg/day, 7th day, 7 mice per group): two nude mice died
mice died ([7]; cisplatin 5 mg/kg/day, 10th day, 7 mice per group): 4
mice died (total) ([7]; cisplatin 5 mg/kg/day, reduced to 2.5 mg/kg on the 15th day, 18th day, 7 mice per group): 5 and 5/7
inhibitory effect on tumor growth ([7]; high-dosage cisplatin (5 mg/kg)): good inhibitory effect on tumor growth

COc1cccc2c1C(=O)c1c(O)c3c(c(O)c1C2=O)C[C@@](O)(C(=O)CO)C[C@@H]3O[C@H]1C[C@H](N)[C@H](O)[C@H](C)O1 [doxorubicin]
IC50 [1]: 0.51 µM
tumor-growth inhibition rate ([8]; doxorubicin 60 mg/kg/week (20 mg/kg each time, 3 times/week), 14th day): 21.4%
experimental animals died ([8]; doxorubicin 60 mg/kg/week, 14th day of the experiment, 7 mice per group): one experimental animal in this group died
tumor-growth inhibition rate [9]: 25.7%
IC50 (Huh-7 (human hepatoma)): 1.2 µM

CC(=O)O[C@H]1C(=O)[C@@]2(C)[C@H]([C@H](OC(=O)c3ccccc3)[C@]3(O)C[C@H](OC(=O)[C@H](O)[C@@H](NC(=O)c4ccccc4)c4ccccc4)C(C)=C1C3(C)C)[C@]1(OC(C)=O)CO[C@@H]1C[C@@H]2O [paclitaxel]
IC50 [1]: 0.742 µM
